Reference: US5608143A, “External regulation of gene expression” (E. I. Du Pont de Nemours and Company, priority 1994, dated 1997)

Legend:
[1] = test system: 2-2 corn promoter; assay: Transient GUS expression assay, 2-2 corn promoter/GUS constructions in transformed rice protoplasts
Protocol: Cell counts were made with a Fuchs-Rosenthal hemocytometer.
Protoplasts were transformed as follows: Multiple aliquots of the protoplasts (5-10×10^6 cells) were centrifuged gently (80 g) for 4 minutes in sterile tubes. The supernatant was discarded and the cells were resuspended in 1 ml of Kern's F, pH 5.8 buffer. Ten μg of transforming DNA in less than 15 μl of TE pH 8.0 were added per million protoplasts. […] The resulting protoplast cell suspension was mixed gently and incubated at room temperature for 20 minutes. A volume of 13-15 mls of Kren's F, pH 7.0 solution was then added to dilute out PEG.
The transformed protoplasts were collected by centrifugation at 80 g for 4 minutes. The supernatant was discarded and the protoplasts were resuspended in 2.0 ml of Kren's F, pH 5.8. The protoplast sample was divided into two 1 ml aliquots. One ml of protoplast medium was added to one aliquot of the protoplasts, while 1 ml of the protoplast medium containing 100 μg/ml N-(aminocarbonyl)-2-chlorobenzenesulfonamide was added to the other aliquot.
The inducibility of the recombinant GUS genes whose expression were controlled by 2-1 corn gene promoter and downstream sequences were determined by measuring the level of the β-glucuronidase enzyme activity in protoplasts cultured in the presence and absence of N-(aminocarbonyl)-2-chlorobenzenesulfonamide. GUS activity was assayed by harvesting protoplasts in a clinical centrifuge at 80 g for 5 minutes, and resuspending them in 1.0 ml 1× GUS lysis buffer (50 mM sodium phosphate pH 7.0, 10 mM β-mercaptoethanol, 10 mM EDTA, 0.1% Triton X-100, 0.1% N-lauroylsarcosine). The suspension containing the lysed protoplasts was vortexed and spun at top speed in a table top clinical centrifuge for 5 minutes. Eighteen μl of the supernatant was transferred to a tube containing 782 μl of water for determination of protein content in the protoplast lysate. […] A protein concentration curve was prepared using bovine serum albumin as a standard. The protein content, so determined, was multiplied by a factor of 7.2 to give the protein content in 130 μl of extract (the amount of extract present in a single time point of the assay-see below). Of the remaining supernatant,585 μl was transferred to a fresh tube.
The substrate for the GUS assay was 4-methyl-umbelliferyl-β-D-glucuronide (4-MUG) and was obtained from Sigma Chemical Co., St. Louis Mo. […] 4-MUG was prepared as a 10 mM stock in 1× GUS buffer. Sixty-five μl of a pre-warmed (37° C.) 10 mM 4-MUG stock was added to the pre-warmed 585 μl protoplast extract, and a 100 μl aliquot of the resulting mixture was transferred to a well of a 24-well microtiter dish containing 0.9 ml of 0.2M Na2 CO3. Similar aliquots are removed at 1 hour, 2 hour, and 3 hours. The 4-MU flourescence of individual samples, from each time point was determined quantitatively using an excitation wavelength of 365 nm and measuring flourescence at an emission wavelength of 455 nm. […] GUS activity in the transient assay was expressed as picomoles of 4-MU produced per μg protein per hour.

[2] = test system: metabolism of chlorsulfuron and metsulfuron methyl; conditions: wheat and corn following application of the antidote; cited from earlier work
[3] = test system: 2-1 gene (In 2-1 mRNA); assay: RNA slot blot / Northern analysis of 2-1 mRNA in roots of chemically treated corn; assay type: in vivo, corn (Missouri 17); conditions: six hours, corn roots; for In 2-1: net amount of radioactivity hybridizing to treated RNA after subtraction of untreated RNA: 200 mg/l hydroponic, slot blot 2 μg total RNA
Protocol: Missouri 17 corn seeds were surface sterilized by soaking them in a solution of 10% commercial bleach and 0.1% sodium dodecylsulfate (SDS) for 30 minutes. Seeds were then rinsed thoroughly in a buchner funnel with sterile distilled water and prepared for germination by placing them onto 5-6 layers of moist sterile paper towels in a 8"×10" glass baking tray. The tray was covered with aluminum foil and placed in the dark in a 30° C. incubator for 48-72 hours to allow the seeds to germinate. After germination, seedlings were grown hydroponically in an apparatus consisting of a sheet of 8 mesh stainless steel wire gauze suspended over the top of a 2 liter glass beaker filled with sterile half strength Hoagland's solution (referred to 0.5× Hoagland's) so that the roots extended through the mesh and into the media. The hydroponic apparatus was aerated by introducing humidified air into the bottom of the beaker with a gas diffusing stone commonly used in tropical fish aquariums. The apparatus was covered with a loose-fitting sheet of aluminum foil and placed in a reach-in growth chamber illuminated by both fluorescent and incandescent lamps at an intensity of 4400 lux. Seedlings were grown at 28° C., 75% relative humidity using a 16 hour day/8 hour night cycle. After two days, the foil was removed and plants were grown for an additional 5-6 days. Any 0.5× Hoagland's lost to evaporation was replenished every 2-3 days. […] Plants were then allowed to grow for six additional hours prior to harvest.
A nitrocellulose filter (Schlicher and Schull BA-85) was wetted by soaking it twice for 10 minutes in water, followed by a 10 minute soak in 1M ammonium acetate. The filter was then placed into a Slot Blot apparatus (Schleicher and Schuell, Inc., Keene, N.H. 03431, CAT #SRC072/0). […] Forty pl of denaturation buffer (30% formaldehyde, 100 mM sodium phosphate pH 6.8) were added to each sample and all samples were then incubated at 65° C. for 20-30 minutes and quick-cooled in an ice slurry for 5 minutes. Thirty μl of 4M ammonium acetate were added to each sample and the 150 μl samples were added to slots in the blotting cell with the aid of a 10-15 mm Hg vacuum. The filter was removed from the blotting cell, air dried and baked for 2 hours at 70° C. in vacuo.
The filter was cut into six pieces such that each piece had one slot cox.raining RNA from each of the three treatments described above. One of the filter pieces was incubated with 10 ml of prehybridization buffer (50% deienized formamide, 5× SSC, 5× Denhardt's, 100 μg/ml denatured calf thymus DNA, 20 μg/ml homopoly(A), 40 mM sodium phosphate pH 6.8 and 0.5% BSA) in a heat-sealable bag for 6 hours at 42° C. with occasional mixing. The filter piece was then hybridized with nick-translated pIn 2-1. This was performed by discarding the prehybridization solution from the bag and replacing it with 2.5 ml of hybridization buffer (50% deionized formamide, 5× SSC, 100 μg/ml denatured calf thymus DNA, 20 μg/ml homopoly(A) and 40 mM sodium phosphate, pH 6.8) containing 1.25×10^7 cpm of nick translated 2-1 plasmid described above. Nick-translated plasmid was denatured by boiling for 10 minutes followed by quick-cooling on ice. The filter was then hybridized overnight at 42° C. with occasional mixing.

[4] = test system: 2-2 gene (In 2-2 mRNA); assay: RNA slot blot / Northern analysis of 2-2 mRNA in roots of chemically treated corn; assay type: in vivo, corn (Missouri 17); conditions: 200 mg/l hydroponic, six hours, corn roots, slot blot 2 μg total RNA
Protocol: Details of the techniques used to perform the procedures used in Example 2 are presented in Example 1. The cDNA library made using poly(A)^+ RNA from the roots of N-(aminocarbonyl)-2-chlorobenzenesulfonamide-treated Missouri 17 corn plants (described in Example 1) was analyzed for additional cDNA clones representing mRNAs induced by substituted benzenesulfonamides. […] This colony was designated In 2-2.
A small scale plasmid preparation was performed on the plasmid contained in colony In 2-2. This plasmid was designated pIn 2-2. An aliquot of pIn 2-2 was nick translated as described earlier. A slot blot containing total RNA from N-(aminocarbonyl)-2-chlorobenzenesulfonamide-treated and untreated roots was prepared and probed with nick-translated pIn 2-2 as described for pIn 2-1 in Example 1.
The pIn 2-2 small scale plasmid preparation was digested to completion with Pst I and analyzed by agarose gel electrophoresis. The cDNA insert of the plasmid was excised by Pst I as a single 1200 bp fragment. Nick-translatedpIn 2-2 was used to probe a Northern blot of RNA from both untreated and N-(aminocarbonyl)-2-chlorobenzenesulfonamide-treated roots.
(§1) The ability at various substituted benzenesulfonamides and related compound to induce the expression of the 2-1, 2-2, and 5-2 genes of Missouri 17 corn was evaluated. Corn seeds were germinated and grown hydroponically in 2 liter beakers as described in Example 1. On the tenth day, plants were transferred into fresh 0.5× Hoagland's solution containing the chemical to be tested. Root tissue was harvested from the plants after six hours of chemical treatment, quick-frozen by immersion in liquid N2, and stored at -80° C. until analyzed.
(§2) Details of the RNA isolation and slot blot analysis procedures are presented in Example 1. Total RNA was prepared from the root tissue of plants that had been treated with various chemicals using the previously described guanidine thiocyanate procedure. Replicate blots, each consisting of 2 μg of total RNA from tissues treated with each of the chemicals shown in tables 8 and 9, were prepared on nitrocellulose membranes using a Minifold II® Slot-blotter (Schleicher & Schuell) following the manufacturer's recommeneded procedure. Replicate blots were prehybridized and hybridized with cDNA probes made by nick translation of the purified cDNA inserts from plasmid pIn 2-1, pIn 2-2-3, and pIn 5-2. Slot blots were washed as described in Example 1 and exposed to Kodak X-OMAT XAR-5 film for 24 hours at -80° C. using a single Du Pont Lightning Plus intensifying screen. Film was developed using a Kodak X-OMAT film processor. The abililty of a chemical to induce the mRNA encoded by the three inducible genes was evaluated in one of two ways. Qualitative evaluation was performed by direct visual comparison of the autoradiographic signal intensities on the films for the hybridization of each probe to the different RNA samples. Quantitative evaluation was performed by cutting each slot containing hybridized RNA from the blot, immersing it in 2 ml of Du Pont ECONOFLUOR® scintillation cocktail and counting the radioactivity in each slot in a scintillation counter. The net amount of radioactivity hybridizing to N-(aminocarbonyl)-2-chlorobenzenesulfonamide-treated RNA after subtraction of radioactivity hybridizing to untreated RNA is presented in Table 15.

[5] = test system: 5-2 gene (In 5-2 mRNA); assay: RNA slot blot / Northern analysis of 5-2 mRNA in roots of chemically treated corn; assay type: in vivo, corn (Missouri 17); conditions: 200 mg/l hydroponic, six hours, corn roots, slot blot 2 μg total RNA
Protocol: Details of the techniques used to perform Example 3 are presented in Example 1. The cDNA library made from poly (A)+ RNA from the roots of N-(aminocarbonyl)-2-chlorobenzenesulfonamide-treated Missouri 17 corn plants described in Example 1 was analyzed for additional cDNA clones representing N-(aminocarbonyl)-2-chlorobenzenesulfonamide-induced mRNAs. […] This colony was designated In 5-2.
A small scale plasmid preparation was performed on an overnight culture of In 5-2 and an aliquot of the plasmid, designated pIn 5-2, was nick-translated as described earlier. Slot blot analysis was performed as described in Example 1 using nick-translated In 5-2 plasmid. […] This plasmid was designated pIn 5-2.
An aliquot of the small scale plasmid preparation of pIn 5-2 was digested to completion with PSt I and analyzed by agarose gel electrophoresis. The cDNA insert of the plasmid was excised as a single 420 bp Pst I fragment. Plasmid pin 5-2 was nick-translated and used to probe a Northern blot of RNA from both untreated and N-(aminocarbonyl)-2-chlorobenzenesulfonamide-treated roots.
as §1, §2

[6] = test system: tobacco leaf pieces (callus formation); assay: Callus formation of leaf pieces from kanamycin-resistant tobacco shoots on selective medium; assay type: cell-based; conditions: sixteen kanamycin-resistant shoots, three weeks; 10 ppb chlorsulfuron and/or 100 ppm D5293
From the text: Callus formation was scored as plus or minus after three weeks of growth.

[7] = test system: petunia P6.1 gene (P6 RNA); assay: Northern / RNAse protection analysis of P6 RNA in roots of chemically treated petunia; assay type: in vivo, Petunia (Mitchell); conditions: hydroponic 100 mg/l, roots
From the text: Petunia (Mitchell) seeds were germinated in soil and allowed to grow for one month under standard greenhouse conditions. Plants were transferred to a hydroponic growth apparatus in a greenhouse using foam plugs to support the plants. These plugs were then placed in holes in a wooden bDard and placed over a stainless steel sink containing 0.5× Hoagland's solution. The solution was aerated using standard aquarium pumps, and was changed weekly. After one month of hydroponic growth, plants were transferred to stainless steel trays containing either fresh 0.5 × Hoagland's or 0.5× Hoagland's containing 0.2 g per liter of N-(aminocarbonyl)-2-chlorobenzenesulfonamide. Root tissue was harvested after six hours of treatment.
Ten μg (2 mg/ml) of total RNA from control and N-(aminocarbonyl)-2-chlorobenzenesulfonamide-treated roots was denatured by adding 10 μl of deionized formamide, 3.5 μl formaldehyde, 4 μl 5× MEN buffer (40 mM MOPS pH 7.0, 10 mM sodium acetate, 1 mM EDTA) and incubating at 65° C. for 15 minutes. […] RNA was stained in the presence of 10 mM sodium phosphate pH 6.8 and 1 μg/ml acridine orange for 30 minutes. The gel was then desrained in 10 mM sodium phosphate for 30 minutes, and the RNA was visualized on a UV transilluminator, photographed, and blotted to nitrocellulose (Millipore HAWP). To do this, Whatman 3MM paper was placed below the gel on a glass plate so that the ends of the paper extended into 20× SSC. A sheet of nitroccllulose which had been prewet with 2× SSC was placed on top of the gel followed by a layer of Whatman 3MM, then a stack of paper towels 10 cm high. A glass plate and weight were then placed on top of the stack. Following an overnight transfer, the filter was rinsed briefly in 2× SSC, air dried, and baked in vacuo for 2 hours at 80° C.
The filters were prehybridized for 5 hours in plastic dishes at 42° C. using the hybridization buffer described earlier. Plasmid p6.1 was nick-translated by combining 1 μg of DNA with 5 μl 10× buffer (0.5M Tris-HCl pH 8.0, 0.1M MgSO4, 10 mM DTT and 0.5 mg/ml BSA), 5 μl 0.3 uM d(AGT)TP, 5 μl ^32 P-dCTP (Amersham, 10 mCi/ml, 400 Ci/mmole), 1 μl DNA polymerase 1 (5 U/μl, Boehringer-Mannheim), and 1 μl of 0.1 μg/ml DNAse 1 in a total volume of 50 μl. […] The reaction was then incubated for 5 minutes at 70° C., and labelled DNA was separated from unincorporated nucleotides by Sephadex® G-50 column chromatography. The prehybridization solution was removed from the bag and replaced with hybridization solution containing nick-translated plasmid P6.1 DNA at a concentration of 1×10^6 cpm/ml. […] Filters were washed twice with 2× SSC, 0.1% SDS at 42° C. followed by two washes in 0.1× SSC, 0.1%SDS at 60° C.
RNA probes complementary to the coding strands in both P644 and P645 were synthesized in the following reaction: 50 uCi ^32 P-UTP, 2 μl 5× transcription buffer (200 mM Tris-HCl pH 7.5, 30 mM MgCl2, 10 mM spermidine), 0.5 μl 0.2M DTT, and 0.5 μl of either T3 polymerase (plasmid P645) or T7 polymerase (plasmid P644). Incubation was carried out at 40° C. for 1 hour. The DNA template was hydrolyzed for 15 minutes at 37° C. by addition of 30 μl H2 O, 1 μl RNAsin, 2,5 μl vanadyl ribonucleoside complex, 6 μl 5× transcription buffer and 1 μl DNAse 1 (1 mg/ml) to the transcription reaction. The reaction was extracted with an equal volume of phenol:chloroform (1:1 v/v). The RNA was precipitated once with ethanol in the presence of ammonium acetate and once with ethanol in the presence of sodium acetate. The pellets were dissolved in 25 μl of TE. Ten μg of RNA from untreated and N-(aminocarbonyl)-2-chlorobenzenesulfonamide-treated plants were mixed with 1×10^6 cpm of each of the two probes in 30 ul of hybridization buffer (40 mM PIPES pH 6.7, 0.4M NaCl, 1 mM EDTA). […] Single stranded RNA was selectively digested by adding 300 μl RNAse A and RNAse T1 to 40 μg/ml and 2 μg/ml respectively in 10 mM Tris-HCl pH 7.5, 5 mM EDTA, and 300 mM NaCl.

[8] = rice protoplasts transformed with pTDS133, compound at 100 μg/l

CCCCNC(=O)NS(=O)(=O)c1cccc(Cl)c1S(=O)(=O)N(C)C [Compound 2 (Table 15), N'-[2-(n-butylaminocarbonyl)]-6-chloro-N,N-dimethyl-1,2-benzene-disulfonamide]
ability to induce GUS activity in transformed protoplasts (rank) ([1]; rice protoplasts transformed with pTDS133): most active

CNC(=O)NS(=O)(=O)c1c(C)cccc1OC [Compound 17]
AVE. INDUCTION [1, 8]: 16.6 | Assay 3 (induction of GUS activity) [1, 8]: 16.6

CCCCNC(=O)NS(=O)(=O)c1cnccc1Cl [Compound 19]
AVE. INDUCTION [1, 8]: 5.2 | Assay 3 (induction of GUS activity) [1, 8]: 5.2

O=C1OC(=O)c2cccc3cccc1c23 [napthalic anhydride]
increases in the metabolism rates of chlorsulfuron and metsulfuron methyl [2]: 2 to 5 fold

CCCCNC(=O)NS(=O)(=O)c1ccccc1P(=O)(OCC)OCC [Compound 1]
In 2-1: net amount of radioactivity hybridizing to treated RNA after subtraction of untreated RNA [3]: 204 | In 2-2: net amount of radioactivity hybridizing to treated RNA after subtraction of untreated RNA [4]: 332 | In 5-2: net amount of radioactivity hybridizing to treated RNA after subtraction of untreated RNA [5]: 47

CC(C)(C)NC(=O)NS(=O)(=O)c1ccc(Cl)nc1Cl [Compound 21]
AVE. INDUCTION [1, 8]: 24.2 | Assay 3 (induction of GUS activity) [1, 8]: 24.2

NS(=O)(=O)c1ccccc1Cl [2-chlorobenzenesulfonamide, reference compound]
hybridization of pIn 2-1 to root RNA (RNA slot blot) ([3]; hydroponic 0.2 g/liter): extremely weakly, if at all

CCCCNC(=O)NS(=O)(=O)c1ccccc1S(=O)(=O)N(C)C(F)(F)C(F)F [Compound 16]
AVE. INDUCTION [1, 8]: 30 | Assay 3 (induction of GUS activity) [1, 8]: 30.2

CCCNC(=O)NS(=O)(=O)c1ccccn1 [Compound 20]
AVE. INDUCTION [1, 8]: 38.6 | Assay 3 (induction of GUS activity) [1, 8]: 38.6

COc1nc(C)nc(NC(=O)NS(=O)(=O)c2ccccc2Cl)n1 [Chlorsulfuron, chlorsulfuron, reference compound]
Callus formation (shoots whose leaf pieces formed callus / shoots tested) [6]: 12/16

NC(=O)NS(=O)(=O)c1ccccc1Cl [Compound 5]
In 2-1: net amount of radioactivity hybridizing to treated RNA after subtraction of untreated RNA [3]: 296 | In 2-2: net amount of radioactivity hybridizing to treated RNA after subtraction of untreated RNA [4]: 136 | In 5-2: net amount of radioactivity hybridizing to treated RNA after subtraction of untreated RNA [5]: 59 | AVE. INDUCTION [1, 8]: 7.75 | Assay 1 (induction of GUS activity) [1, 8]: 8.7 | Assay 2 (induction of GUS activity) [1, 8]: 6.8 | Assay 3 (induction of GUS activity) [1, 8]: 43

CN(C)C(=O)c1cccnc1S(=O)(=O)NC(N)=O [Compound 18]
AVE. INDUCTION [1, 8]: 1.6 | Assay 3 (induction of GUS activity) [1, 8]: 1.6

O=C(O)c1ccccc1O [Salicylic acid, reference compound]
time at which P6 RNA level declined to that seen in untreated plants [7]: ≤ 6 h | time at which maximal levels of P6 RNA were seen ([7]; sampled at 2, 4, 6 and 22 hours): ≤ 2 h

CCCCNC(=O)NS(=O)(=O)c1ccoc1C(=O)OC [Compound 14]
AVE. INDUCTION [1, 8]: 27.3 | Assay 3 (induction of GUS activity) [1, 8]: 27.3

CCCCNC(=O)NS(=O)(=O)c1cccc(C)c1S(=O)(=O)CCC [Compound 15]
AVE. INDUCTION [1, 8]: 24 | Assay 3 (induction of GUS activity) [1, 8]: 24.1

N#CCON=C(C#N)c1ccccc1 [cyometrinil]
increases in the metabolism rates of chlorsulfuron and metsulfuron methyl [2]: 2 to 5 fold

C=CCN(CC=C)C(=O)C(Cl)Cl [N,N-diallyl-2,2-dichloroacetamide]
increases in the metabolism rates of chlorsulfuron and metsulfuron methyl [2]: 2 to 5 fold
